Experimental data reported in patent US12697316B2, “Combination therapy with acetyl-leucine and miglustat” (INTRABIO LTD., priority 2019, dated 2026).

Key:
[1] = test system: Npc1^−/− mice; test: CatWalk automated gait analysis in Npc1−/− mice; assay type: in vivo, mouse; conditions: for ataxia (lateral displacement from a straight trajectory): 9-week-old Npc1−/− mice treated from 8 weeks of age (1 week), 0.1 g/kg/day in diet; for ataxia (lateral displacement from a straight trajectory) / duty cycle of hind paws / hind paw stand mean: vs untreated Npc1−/−; for magnitude of ataxia: Npc1−/− mice treated from weaning (3 weeks), assessed at 9 weeks (6 weeks of treatment)
Method: BALBc/NPC ^h and Sandhoff mice were bred as heterozygotes to generate affected mice (Npc1^−/−, Hexb^−/−) and controls (Npc^+/+, Hexb^+/+). The mice were housed under non-sterile conditions, with food and water available ad libitum. All experiments were conducted using protocols approved by the UK Home Office Animal Scientific Procedures Act, 1986.
(§1) ADLL and enantiomers (ADLL: Molekula #73891210, ALL: Sigma Aldrich #441511, ADL: Sigma #A0876) were administered as dry admix in powdered mouse diet (PicoLab Rodent Diet 20/5053, LabDiet) at a dose of 0.1 g/kg/day for in vivo studies. Treatment groups for in vivo study consisted of at least 5 mice per group. In vitro studies were conducted with each compound dissolved in PBS to generate a 50 mM stock solution and diluted to a 1 mM working concentration in media (DMEM High Glucose-Gibco #10566016).
Miglustat (Monsanto/Oxford GlycoSciences) was administered as a dry solid mixed with powdered chow (600 mg/kg/day) (see above) alone or in combination with ADLL.
The weight and activity of each mouse was recorded weekly until reaching the humane endpoint (defined as a loss of 1 g body weight within 24 h). Gait analysis was performed using CatWalk 10.5 system (Noldus) according to the manufacturer's instructions and five runs were recorded per animal at each time point. The camera was set to 40 cm below the walkway, the walkway was approximately 4 cm wide, and detection settings set to camera gain 14.05 and green intensity 0.12. Motor function was measured using an accelerating NG Rota Rod for mice (Ugo Basile) starting from 1 rpm to 10 rpm, accelerating every 30 seconds by one rpm. Bar crossing experiments on Sandhoff animals were conducted to measure motor strength and coordination. The apparatus used was modified from published studies. Briefly, a metal bar (1.2 mm width and 26 cm in length) was suspended horizontally between two wooden supports 30 cm high over a cushioned surface and animals were allowed to grasp the center of the bar with forepaws only, the tail was released, and the clock was started. Latency to cross or fall from the bar was scored, with 120 sec, maximum, to termination of each trial. A score was given to each animal between +120 and −120. If crossing time was greater than 0, then score=120−CT; if falling time was greater than 0, the score=FT−120.

[2] = test system: Npc1^−/− mice; test: Accelerating Rotarod motor function in Npc1−/− mice; assay type: in vivo, mouse; conditions: Npc1−/− mice treated from 3 weeks, assessed at 8 weeks, vs untreated Npc1−/−
Method: The weight and activity of each mouse was recorded weekly until reaching the humane endpoint (defined as a loss of 1 g body weight within 24 h). […] Motor function was measured using an accelerating NG Rota Rod for mice (Ugo Basile) starting from 1 rpm to 10 rpm, accelerating every 30 seconds by one rpm.

[3] = test system: Npc1^−/− Chinese Hamster Ovary (CHO) cells; test: Sphingosine, total GSL and cholesterol content in NPC1 null CHO cells; assay type: cell-based; conditions: 1 mM, 72 hours
Method: Wild type and NPC1 null Chinese Hamster Ovary (CHO) cells were kindly provided by Chris Wassif (NIH).
as §1
Sphingoid Base Measurements: Sphingoid bases (sphingosine and sphinganine) were extracted from 100 uL tissue homogenates in 500 uL of chloroform:methanol (1:2v/v) followed by sonication for 10 minutes at room temperature. Subsequently, 1 M 500-uL sodium chloride, 500 uL chloroform, and 3 M 100 uL sodium hydroxide were added to the samples, and vortexed every five minutes for 15 minutes at room temperature. Homogenates were centrifuged (13,000 g for 10 minutes) and the lower organic phase retained. Sphingoid bases were purified from the samples by pre-equilibrating SPA-NH2 columns with 2×1 mL chloroform followed by sample elution with 3×300 ul acetone. The samples were dried under nitrogen. Lipids were resuspended in 50 uL pre-warmed ethanol (37° C.) and 50 uL OPA labelling solution (1 mg OPA/20 uL Ethanol/1 uL 2-mercaptoethanol; dilution 1:2000 in 3% boric acid pH 10.5) was added. Samples were kept at room temperature in the dark for 20 minutes and vortexed every 10 minutes. Samples were buffered with 100 uL methanol: 5 mM Tris pH 7 (9:1) and centrifuged at 5,000 g for 2 minutes. Supernatants (150 uL) were loaded onto a reverse phase HPLC. Chromatography was carried out using a mobile phase of 85% acetonitrile/15% H2O at a flow rate of 1.0 ml/min. The orthophthaldehyde-labelled derivatives were monitored at an excitation wavelength of 340 nm and an emission wavelength of 450 nm. Quantification of trace peak area was carried out using EZChrom Elite software v3.2.1.
Glycosphingolipid measurements: Glycosphingolipids were extracted and measured by NP-HPLC according to published methods. Tissue homogenates in chloroform/methanol (C:M) (1:2 v/v) overnight at 4° C. The mixture was centrifuged (3000 rpm/10 min) and 1 mL chloroform and 1 mL PBS were added to the supernatant and centrifuged (3000 rpm/10 min). The lower phase was dried under N2, resuspended in 50 uL C:M 1:3 v/v and combined with the upper phase. Subsequently, GSLs were recovered using C18 Isolute columns (100 mg) (Biotage) pre-equilibrated with 4×1 mL MeOH and 2×1 mL H2O. Samples were washed 3×1 mL H2O and eluted with 1 mL C:M 98:2, 2×1 mL C:M 1:3, 1 mL MeOH. The column eluate was dried under N2, resuspended in 100 uL C:M 2:1, dried again under N2 and resuspended in ceramide glycanase (CGase) buffer (50 mM sodium acetate pH 5.5, 1 mg/mL sodium taurodeoxycholate). 50 mU CGase was added, and samples incubated at 37° C. overnight. Released oligosaccharides were anthranilic acid (2-AA) labelled and purified by mixing with 1 mL Acetonitrile: H2O 97:3 and added to Discovery DPA-6S columns (SUPELCO, # 52625-U) pre-equilibrated with 1 mL acetonitrile, 2×1 mL H2O, and 2×1 mL acetonitrile. Columns were washed with 2×1 mL Acetonitrile: H2O 95:5 v/v, and eluted in 2×0.75 mL H2O. Samples were loaded 30:70 H2O: MeCN (v/v) for normal phase HPLC. Solvent A was acetonitrile, solvent B was H2O, and solvent C was 100 mM […] (pH 3.85) in H2O. Separation was carried out at 30° C. using Waters Alliance 2695 separation module, excitation 360, emission 425 using Waters 2475 Fluorescence detector.
Cholesterol measurements: Cholesterol was measured with the Amplex Red kit (Molecular Probes) according to the manufacturer's instructions. Briefly, cell and tissue homogenates in 100 uL mQ water were Folch extracted and dried down under nitrogen. […]

[4] = Npc1−/− mice treated from 3 weeks, assessed at 8 weeks

SMILES	ataxia (lateral displacement from a straight trajectory) [1]	duty cycle of hind paws [1, 4]	hind paw stand mean [1, 4]	magnitude of ataxia [1]	Rotarod performance [2]	reduction of cholesterol content [3]	reduction of sphingosine levels [3]	reduction of total GSL levels [3]	motor function assessed using Catwalk [1, 4]
CC(=O)NC(CC(C)C)C(=O)O (racemic) [ADLL, N-acetyl-DL-leucine]	significantly reduced ataxia	significantly reduced	significantly reduced	significantly reduced	significant improvement	18%	22%	26%	–
CC(=O)N[C@H](CC(C)C)C(=O)O [ADL, N-acetyl-D-leucine]	significantly reduced ataxia	–	–	significantly reduced	no significant benefit	14%	14%	22%	no significant benefit
CC(=O)N[C@@H](CC(C)C)C(=O)O [ALL, N-acetyl-L-leucine]	significantly reduced ataxia	significantly reduced	significantly reduced	significantly reduced	significant improvement	13%	29%	25%	–
